{"source": "patent US12622900B2", "about": "“Methods and compositions for treating gastric ulcers” (LUODA PHARMA LIMITED, priority 2015, dated 2026)", "origin": "cited, not measured here", "key": {"gastric ulcers": {"test_system": "gastric ulcers", "settings": "traditional oral dosing"}, "gastric acid secretion": {"test_system": "gastric acid secretion", "settings": "single intramuscular injection at 1 mg/kg bodyweight, omeprazole monohydrate dissolved in saline"}}, "data": [{"smiles": "COc1ccc2nc([S+]([O-])Cc3ncc(C)c(OC)c3C)[nH]c2c1", "note": "(stereo not drawn) [omeprazole, 6-methoxy-2-[(4-methoxy-3,5-dimethylpyridin-2-yl)methanesulfinyl]-1H-1,3-benzodiazole]", "values": [{"measurement": "Gastric ulcers healed", "setting": "gastric ulcers; in 28-35 days", "value": 25, "unit": "%"}, {"measurement": "Squamous ulcers that will heal", "setting": "gastric ulcers; within a 28 day treatment period", "value": "70-80%"}, {"measurement": "Duration of pentagastrin-stimulated acid suppression", "setting": "gastric acid secretion", "value": 12, "unit": "h"}, {"measurement": "Duration of reduced basal acid secretion", "setting": "gastric acid secretion", "value": "around 23 hours"}, {"measurement": "Period for which the dose is effective", "setting": "gastric acid; 1-2 g daily oral dose to horses", "value": "12 to 24", "unit": "h"}, {"measurement": "Duration of adequate gastric acid suppression", "setting": "gastric acid; oral omeprazole preparations in horses (Merritt et al)", "value": 12, "unit": "h"}]}]}
